From patent publication US9359352B2, “Substituted benzimidazoles as PI3 kinase inhibitors” (Intellikine LLC, priority 2010, dated 2016)

Columns and labels:
Assay type in all cases: biochemical
PI3K δ = target: T1, PI3K δ (Homo sapiens, UniProt O00329); assay: PI 3-Kinase HTRF inhibition assay, PI3K δ; settings: in vitro; read-out: PI3K δ IC50
T1 construct: purchased Upstate
Experimental: (§1) Commercial kits or systems for assaying PI3-K activities are available. The commercially available kits or systems can be used to screen for inhibitors and/or agonists of PI3-Ks including but not limited to PI 3-Kinase α, β, δ, and γ. An exemplary system is PI 3-Kinase (human) HTRF™ Assay from Upstate. […] Briefly, the assay is a time resolved FRET assay that indirectly measures PIP3 product formed by the activity of a PI3-K. The kinase reaction is performed in a microtitre plate (e.g., a 384 well microtitre plate). The total reaction volume is approximately 20 ul per well. In the first step, each well receives 2 ul of test compound in 20% dimethylsulphoxide resulting in a 2% DMSO final concentration. Next, approximately 14.5 ul of a kinase/PIP2 mixture (diluted in 1× reaction buffer) is added per well for a final concentration of 0.25-0.3 ug/ml kinase and 10 μM PIP2. The plate is scaled and incubated for 15 minutes at room temperature. To start the reaction, 3.5 ul of ATP (diluted in 1× reaction buffer) is added per well for a final concentration of 10 μM ATP. The plate is sealed and incubated for 1 hour at room temperature. The reaction is stopped by adding 5 ul of Stop Solution per well and then 5 ul of Detection Mix is added per well. The plate is sealed, incubated for 1 hour at room temperature, and then read on an appropriate plate reader. Data is analyzed and IC50s are generated using GraphPad Prism 5. For PI3K α, β, δ, and γ, the nM concentration of inhibitor to reach IC50 is provided. […] Similar assays, and others known in the art, can be used to measure the percent inhibition of other kinases, including but not limited to PI3K class II kinases, phosphoinositide 4 kinases (PI4K), and phosphoinositide 5 kinases (PI5K).

PI3K α = target: T2, PI3K α (Homo sapiens, UniProt P42336); assay: PI 3-Kinase HTRF inhibition assay, PI3K α; settings: in vitro; read-out: PI3K α IC50
T2 construct: purchased Upstate
Experimental: as §1

PI3K γ = target: T3, PI3K γ (Homo sapiens, UniProt P48736); assay: PI 3-Kinase HTRF inhibition assay, PI3K γ; settings: in vitro
T3 construct: purchased Upstate

PI3K β = target: T4, PI3K β (Homo sapiens, UniProt P42338); assay: PI 3-Kinase HTRF inhibition assay, PI3K β; settings: in vitro
T4 construct: purchased Upstate
Experimental: as §1

T3 sequence (P48736 whole entry): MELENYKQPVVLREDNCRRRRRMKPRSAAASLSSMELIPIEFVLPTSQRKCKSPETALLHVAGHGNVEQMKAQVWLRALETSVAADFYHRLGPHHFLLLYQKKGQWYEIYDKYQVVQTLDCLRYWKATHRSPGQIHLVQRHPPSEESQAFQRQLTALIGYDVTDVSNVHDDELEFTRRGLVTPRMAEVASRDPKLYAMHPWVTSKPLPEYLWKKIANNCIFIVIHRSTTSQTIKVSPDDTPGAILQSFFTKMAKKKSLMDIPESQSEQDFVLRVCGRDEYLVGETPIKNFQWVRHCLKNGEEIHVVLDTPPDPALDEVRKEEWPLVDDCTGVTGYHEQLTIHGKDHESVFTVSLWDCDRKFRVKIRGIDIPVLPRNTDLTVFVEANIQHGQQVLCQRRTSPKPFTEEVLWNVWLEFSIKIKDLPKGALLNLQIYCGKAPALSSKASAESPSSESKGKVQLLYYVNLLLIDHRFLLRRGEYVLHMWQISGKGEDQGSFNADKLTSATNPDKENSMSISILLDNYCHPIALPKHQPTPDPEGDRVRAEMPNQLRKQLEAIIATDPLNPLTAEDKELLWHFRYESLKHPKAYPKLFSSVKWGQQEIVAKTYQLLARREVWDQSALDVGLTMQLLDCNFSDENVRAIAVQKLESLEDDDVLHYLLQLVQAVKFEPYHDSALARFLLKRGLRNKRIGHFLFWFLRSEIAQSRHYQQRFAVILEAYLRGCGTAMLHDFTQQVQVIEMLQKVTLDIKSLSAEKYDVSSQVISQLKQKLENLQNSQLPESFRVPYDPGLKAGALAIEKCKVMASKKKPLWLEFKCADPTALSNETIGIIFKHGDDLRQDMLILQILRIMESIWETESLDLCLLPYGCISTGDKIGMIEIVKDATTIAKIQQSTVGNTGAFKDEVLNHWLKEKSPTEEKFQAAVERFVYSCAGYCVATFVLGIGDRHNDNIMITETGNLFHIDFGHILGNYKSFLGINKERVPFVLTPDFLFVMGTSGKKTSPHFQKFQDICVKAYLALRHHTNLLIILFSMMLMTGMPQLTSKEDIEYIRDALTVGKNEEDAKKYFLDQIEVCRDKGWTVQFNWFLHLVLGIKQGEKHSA
T2 sequence (P42336 whole entry): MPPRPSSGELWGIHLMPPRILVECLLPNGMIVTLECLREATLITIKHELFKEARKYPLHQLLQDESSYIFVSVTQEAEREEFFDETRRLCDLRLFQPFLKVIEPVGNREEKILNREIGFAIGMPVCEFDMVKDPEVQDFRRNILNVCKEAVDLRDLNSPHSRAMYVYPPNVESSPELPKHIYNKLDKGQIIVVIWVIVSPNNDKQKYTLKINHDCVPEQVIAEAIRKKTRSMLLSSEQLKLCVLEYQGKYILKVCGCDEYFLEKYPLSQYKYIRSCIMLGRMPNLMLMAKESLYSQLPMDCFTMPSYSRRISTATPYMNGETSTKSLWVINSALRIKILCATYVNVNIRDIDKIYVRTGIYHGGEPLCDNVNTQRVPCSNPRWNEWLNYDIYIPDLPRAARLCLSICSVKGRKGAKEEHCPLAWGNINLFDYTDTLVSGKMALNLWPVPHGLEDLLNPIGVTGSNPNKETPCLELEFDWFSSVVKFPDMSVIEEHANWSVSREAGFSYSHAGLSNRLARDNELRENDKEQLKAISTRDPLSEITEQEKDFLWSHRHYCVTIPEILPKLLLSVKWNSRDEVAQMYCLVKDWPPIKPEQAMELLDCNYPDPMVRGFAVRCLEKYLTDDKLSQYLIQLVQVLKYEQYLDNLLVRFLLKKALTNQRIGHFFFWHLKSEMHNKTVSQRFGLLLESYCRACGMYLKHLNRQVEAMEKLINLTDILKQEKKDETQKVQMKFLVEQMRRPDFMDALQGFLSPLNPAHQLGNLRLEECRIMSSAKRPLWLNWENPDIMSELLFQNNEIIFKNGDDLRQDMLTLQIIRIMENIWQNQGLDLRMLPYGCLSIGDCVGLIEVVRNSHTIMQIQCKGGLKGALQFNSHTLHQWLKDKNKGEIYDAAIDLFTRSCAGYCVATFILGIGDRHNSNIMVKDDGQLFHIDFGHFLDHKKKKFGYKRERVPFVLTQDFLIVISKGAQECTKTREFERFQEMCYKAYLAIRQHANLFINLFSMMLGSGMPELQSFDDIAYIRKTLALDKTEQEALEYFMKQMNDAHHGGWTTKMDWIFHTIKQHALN
T2 sequence (P27986 whole entry partner): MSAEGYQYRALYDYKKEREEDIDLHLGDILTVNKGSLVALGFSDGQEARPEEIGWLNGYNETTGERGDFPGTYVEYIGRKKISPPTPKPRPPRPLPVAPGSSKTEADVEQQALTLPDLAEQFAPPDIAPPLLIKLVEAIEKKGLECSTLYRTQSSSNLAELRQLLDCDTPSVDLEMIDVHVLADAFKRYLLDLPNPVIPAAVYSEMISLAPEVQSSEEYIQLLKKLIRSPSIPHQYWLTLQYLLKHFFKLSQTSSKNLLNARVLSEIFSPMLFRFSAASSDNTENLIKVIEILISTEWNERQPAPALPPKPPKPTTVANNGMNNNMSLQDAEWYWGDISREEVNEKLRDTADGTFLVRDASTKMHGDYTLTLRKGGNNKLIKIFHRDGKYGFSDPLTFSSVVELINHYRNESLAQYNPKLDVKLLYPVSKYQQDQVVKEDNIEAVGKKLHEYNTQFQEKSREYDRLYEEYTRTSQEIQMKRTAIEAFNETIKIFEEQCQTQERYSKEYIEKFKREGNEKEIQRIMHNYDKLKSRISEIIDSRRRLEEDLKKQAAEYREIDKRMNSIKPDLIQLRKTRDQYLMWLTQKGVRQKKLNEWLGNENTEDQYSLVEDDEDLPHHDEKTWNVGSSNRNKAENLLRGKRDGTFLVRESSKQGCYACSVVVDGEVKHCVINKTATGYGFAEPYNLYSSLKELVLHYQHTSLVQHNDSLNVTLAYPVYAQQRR
T4 sequence (P42338 whole entry): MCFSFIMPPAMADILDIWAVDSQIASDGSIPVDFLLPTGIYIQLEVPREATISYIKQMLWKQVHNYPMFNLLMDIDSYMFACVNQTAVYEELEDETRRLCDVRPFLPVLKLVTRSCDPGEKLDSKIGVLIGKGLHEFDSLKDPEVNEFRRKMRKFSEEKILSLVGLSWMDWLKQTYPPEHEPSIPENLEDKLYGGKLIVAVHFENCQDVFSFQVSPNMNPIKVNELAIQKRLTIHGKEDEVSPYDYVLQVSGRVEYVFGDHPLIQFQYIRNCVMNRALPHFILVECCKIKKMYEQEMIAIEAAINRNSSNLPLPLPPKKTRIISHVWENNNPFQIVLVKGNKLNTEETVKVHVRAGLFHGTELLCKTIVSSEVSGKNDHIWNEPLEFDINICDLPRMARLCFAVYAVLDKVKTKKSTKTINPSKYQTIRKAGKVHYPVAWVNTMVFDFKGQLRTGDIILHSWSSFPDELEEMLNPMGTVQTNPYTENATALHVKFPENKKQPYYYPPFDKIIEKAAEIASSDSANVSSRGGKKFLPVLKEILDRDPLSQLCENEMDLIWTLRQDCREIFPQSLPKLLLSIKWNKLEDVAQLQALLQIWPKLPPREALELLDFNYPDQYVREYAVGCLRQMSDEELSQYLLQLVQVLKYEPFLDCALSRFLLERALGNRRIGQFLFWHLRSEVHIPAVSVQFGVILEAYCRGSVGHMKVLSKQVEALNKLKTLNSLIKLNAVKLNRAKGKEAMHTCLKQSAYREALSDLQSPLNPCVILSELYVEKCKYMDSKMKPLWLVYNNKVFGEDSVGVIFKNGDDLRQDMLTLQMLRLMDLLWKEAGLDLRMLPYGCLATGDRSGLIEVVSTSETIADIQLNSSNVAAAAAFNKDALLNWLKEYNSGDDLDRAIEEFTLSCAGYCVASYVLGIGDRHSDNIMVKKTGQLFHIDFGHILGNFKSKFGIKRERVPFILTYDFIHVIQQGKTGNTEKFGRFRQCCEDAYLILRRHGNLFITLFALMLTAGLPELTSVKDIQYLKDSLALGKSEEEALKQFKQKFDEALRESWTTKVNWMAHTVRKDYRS
T4 sequence (P27986 whole entry partner): as the sequence (P27986 whole entry partner) above
T1 sequence (O00329 whole entry): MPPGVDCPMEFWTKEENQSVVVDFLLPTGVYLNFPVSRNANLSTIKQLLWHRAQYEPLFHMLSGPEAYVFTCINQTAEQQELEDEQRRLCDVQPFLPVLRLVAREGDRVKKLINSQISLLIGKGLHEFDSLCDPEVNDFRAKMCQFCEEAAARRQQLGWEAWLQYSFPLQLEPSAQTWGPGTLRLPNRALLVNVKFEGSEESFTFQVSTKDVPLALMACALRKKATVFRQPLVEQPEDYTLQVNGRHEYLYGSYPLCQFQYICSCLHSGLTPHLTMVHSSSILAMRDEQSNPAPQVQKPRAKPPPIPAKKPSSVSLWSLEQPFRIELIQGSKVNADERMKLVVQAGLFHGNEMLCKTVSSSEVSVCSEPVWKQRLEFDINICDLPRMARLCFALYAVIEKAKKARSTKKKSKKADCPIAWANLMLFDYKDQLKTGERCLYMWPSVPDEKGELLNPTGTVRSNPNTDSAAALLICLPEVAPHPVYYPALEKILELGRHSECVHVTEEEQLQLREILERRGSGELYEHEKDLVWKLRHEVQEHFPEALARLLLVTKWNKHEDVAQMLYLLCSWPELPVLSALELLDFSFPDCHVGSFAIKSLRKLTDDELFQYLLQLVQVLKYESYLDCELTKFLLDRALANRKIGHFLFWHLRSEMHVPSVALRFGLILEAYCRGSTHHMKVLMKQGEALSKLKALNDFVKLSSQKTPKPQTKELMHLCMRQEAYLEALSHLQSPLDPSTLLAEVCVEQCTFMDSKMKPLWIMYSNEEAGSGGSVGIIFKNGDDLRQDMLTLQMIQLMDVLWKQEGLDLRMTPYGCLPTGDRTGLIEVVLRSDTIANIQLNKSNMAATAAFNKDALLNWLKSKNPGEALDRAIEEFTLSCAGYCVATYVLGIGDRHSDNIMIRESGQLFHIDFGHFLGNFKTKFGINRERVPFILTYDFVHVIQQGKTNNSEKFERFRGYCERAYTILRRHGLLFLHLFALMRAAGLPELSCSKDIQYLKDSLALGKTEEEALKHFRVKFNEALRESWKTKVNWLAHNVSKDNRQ
T1 sequence (P27986 whole entry partner): as the sequence (P27986 whole entry partner) above

IC50 (PI3K δ) [µM] | IC50 (PI3K α) [nM] | IC50 (PI3K γ) [nM] | IC50 (PI3K β) [µM] | SMILES
< 10 | < 100 | < 100 | < 10 | Nc1nc2cc(-c3ccc4ncc(-c5cccnc5)cc4n3)ccc2o1 [Compound 16]
> 10 | < 1000 | < 10000 | > 10 | CC1CN(C2CN(c3cnc4ccc(-c5ccc6oc(N)nc6c5)nc4n3)C2)CCO1 (centres unmarked) [Compound 18]
> 10 | < 1000 | < 10000 | > 10 | Nc1nc2cc(-c3ccc4ncc(N5CC(N6CC7CCC(C6)O7)C5)nc4n3)ccc2o1 [Compound 20]
< 10 | < 100 | > 10000 | > 10 | C[C@H]1CN(C2CN(c3cnc4ccc(-c5ccc6oc(N)nc6c5)nc4n3)C2)CCN1C [Compound 21]
> 10 | < 100 | < 100 | < 1 | Nc1nc2cc(-c3ccc4ncc(N5CCOCC5)cc4n3)ccc2o1 [Compound 22]
< 10 | < 100 | < 1000 | < 0.1 | CN1CCN(c2cnc3ccc(-c4ccc5oc(N)nc5c4)nc3c2)CC1 [Compound 24]
< 10 | < 100 | < 10000 | > 10 | C[C@@H]1CN(C2CN(c3cnc4ccc(-c5ccc6oc(N)nc6c5)nc4n3)C2)CCN1C [Compound 25]
< 10 | < 1000 | < 1000 | > 10 | CCN(CC)c1cnc2ccc(-c3ccc4oc(N)nc4c3)nc2n1 [Compound 26]
< 10 | < 100 | < 1000 | < 0.1 | C[C@@H]1CN(c2cnc3ccc(-c4ccc5oc(N)nc5c4)nc3n2)CCN1 [Compound 27]
> 10 | < 100 | < 1000 | > 10 | Nc1nc2cc(-c3ccc4ncc(N5CC6CCC(C5)O6)nc4n3)ccc2o1 [Compound 28]
< 10 | < 100 | < 100 | < 1 | Nc1nc2cc(-c3ccc4ncc(N5CCNC(=O)C5)nc4n3)ccc2o1 [Compound 29]
< 0.1 | < 100 | < 100 | < 0.1 | C[C@H](N)C(=O)N1CCN(c2cnc3ccc(-c4ccc5oc(N)nc5c4)nc3n2)CC1 [Compound 30]
< 10 | < 100 | < 1000 | < 10 | C[C@@H](N)C(=O)N1CCN(c2cnc3ccc(-c4ccc5oc(N)nc5c4)nc3n2)CC1 [Compound 31]
< 10 | < 100 | < 1000 | < 1 | CC(C)N1CCN(c2cnc3ccc(-c4ccc5oc(N)nc5c4)nc3n2)CC1 [Compound 32]
< 10 | < 100 | < 10000 | < 10 | NCC(=O)N1CCN(c2cnc3ccc(-c4ccc5oc(N)nc5c4)nc3n2)CC1 [Compound 33]
> 10 | < 1000 | > 10000 | > 10 | Nc1nc2cc(-c3ccc4ncc(N5CC(N6CCNCC6)C5)nc4n3)ccc2o1 [Compound 34]
< 10 | < 100 | < 10000 | < 10 | Nc1nc2cc(-c3ccc4ncc(N5CC(N6CCN(CC7CC7)CC6)C5)nc4n3)ccc2o1 [Compound 35]
> 10 | < 100 | < 100 | < 10 | CCOC(=O)N1CCN(c2cnc3ccc(-c4ccc5oc(N)nc5c4)nc3c2)CC1 [Compound 36]
< 1 | < 100 | < 1000 | < 1 | NCC(=O)N1CCN(c2cnc3ccc(-c4ccc5oc(N)nc5c4)nc3c2)CC1 [Compound 37]
< 1 | < 100 | < 1000 | < 1 | C[C@H](N)C(=O)N1CCN(c2cnc3ccc(-c4ccc5oc(N)nc5c4)nc3c2)CC1 [Compound 38]
< 1 | < 100 | < 1000 | < 0.1 | C[C@@H](N)C(=O)N1CCN(c2cnc3ccc(-c4ccc5oc(N)nc5c4)nc3c2)CC1 [Compound 39]

IC50 (PI3K δ) [µM] | IC50 (PI3K α) [nM] | IC50 (PI3K γ) [nM] | IC50 (PI3K β) [µM] | SMILES
< 10 | < 100 | < 10000 | < 10 | CC(C)(N)C(=O)N1CCN(c2cnc3ccc(-c4ccc5oc(N)nc5c4)nc3n2)CC1 [Compound 40]
< 1 | < 100 | < 100 | < 1 | Nc1nc2cc(-c3ccc4ncc(N5CCN(C(=O)C6(N)CC6)CC5)cc4n3)ccc2o1 [Compound 42]
< 1 | < 100 | < 1000 | < 1 | CC(C)N1CCN(c2cnc3ccc(-c4ccc5oc(N)nc5c4)nc3c2)CC1 [Compound 44]
> 10 | < 100 | < 100 | < 10 | Nc1nc2cc(-c3ccc4ncc(N5CCC(O)CC5)nc4n3)ccc2o1 [Compound 45]
< 10 | < 100 | < 10000 | < 10 | Nc1nc2cc(-c3ccc4ncc(N5CC(N6CCN(CCO)CC6)C5)nc4n3)ccc2o1 [Compound 46]
< 10 | < 100 | < 1000 | < 0.1 | C[C@H]1CN(c2cnc3ccc(-c4ccc5oc(N)nc5c4)nc3c2)CCN1 [Compound 47]
< 10 | < 100 | < 10000 | < 1 | C[C@@H]1CN(c2cnc3ccc(-c4ccc5oc(N)nc5c4)nc3c2)CCN1 [Compound 48]
> 10 | < 10000 | < 10000 | > 10 | C[C@@H]1COCCN1C1CN(c2cnc3ccc(-c4ccc5oc(N)nc5c4)nc3n2)C1 [Compound 49]
< 10 | < 100 | < 10000 | < 10 | Cc1nccn1C1CN(c2cnc3ccc(-c4ccc5oc(N)nc5c4)nc3n2)C1 [Compound 50]
< 1 | < 100 | < 10000 | < 10 | CC1(C)CN(C2CN(c3cnc4ccc(-c5ccc6oc(N)nc6c5)nc4n3)C2)CCN1 [Compound 52]
< 10 | < 100 | < 1000 | < 10 | Nc1nc2cc(-c3ccc4ncc(N5CC(N6CCOCC6)C5)cc4n3)ccc2o1 [Compound 53]
< 1 | < 100 | < 10000 | < 10 | C[C@H]1CN(C2CN(c3cnc4ccc(-c5ccc6oc(N)nc6c5)nc4c3)C2)CCN1 [Compound 54]
< 1 | < 100 | < 1000 | < 10 | C[C@@H]1CN(C2CN(c3cnc4ccc(-c5ccc6oc(N)nc6c5)nc4c3)C2)CCN1 [Compound 56]
< 1 | < 100 | < 10000 | < 10 | C[C@@H]1CN(C2CN(c3cnc4ccc(-c5ccc6oc(N)nc6c5)nc4c3)C2)CCN1C [Compound 57]
< 1 | < 100 | < 1000 | < 10 | CC1(C)CN(C2CN(c3cnc4ccc(-c5ccc6oc(N)nc6c5)nc4c3)C2)CCN1 [Compound 58]
> 10 | < 100 | < 100 | > 10 | Nc1nc2cc(-c3ccc4ncc(N5CC6CCC(C5)O6)cc4n3)ccc2o1 [Compound 59]
< 1 | < 100 | < 10000 | < 10 | Nc1nc2cc(-c3ccc4ncc(N5CC(N6CCN(CC7CC7)CC6)C5)cc4n3)ccc2o1 [Compound 60]
< 10 | < 100 | < 10000 | > 10 | C[C@H]1COCCN1C1CN(c2cnc3ccc(-c4ccc5oc(N)nc5c4)nc3n2)C1 [Compound 61]
< 10 | < 100 | < 1000 | < 10 | Nc1nc2cc(-c3ccc4ncc(N5CCC(O)CC5)cc4n3)ccc2o1 [Compound 62]
< 1 | < 100 | < 100 | < 10 | Cc1nccn1C1CN(c2cnc3ccc(-c4ccc5oc(N)nc5c4)nc3c2)C1 [Compound 63]

SMILES | IC50 (PI3K δ) [µM] | IC50 (PI3K α) [nM] | IC50 (PI3K γ) [nM] | IC50 (PI3K β) [µM]
Nc1nc2cc(-c3ccc4ncc(N5C6CCC5COC6)cc4n3)ccc2o1 [Compound 23] | > 10 | < 100 | < 100 | < 10
Nc1nc2cc(-c3ccc4ncc(N5CC(N6C7CCC6COC7)C5)nc4n3)ccc2o1 [Compound 51] | > 10 | < 10000 | > 10000 | > 10
C[C@H]1CN(C2CN(c3cnc4ccc(-c5ccc6oc(N)nc6c5)nc4c3)C2)CCN1C [Compound 55] | < 1 | < 100 | < 10000 | < 10
